From PMC6005341, “Identification of “sarsasapogenin-aglyconed” timosaponins as novel Aβ-lowering modulators of amyloid precursor protein processing” (Chemical Science, 2016)

Columns and labels:
[1] = tested on: APP processing in N2A-APPswe cells; assay: Immunoblot of APP processing in N2A-APPswe cells; assay type: cell-based
From the text: Reagents: All reagents were of analytical grade (purity > 98%) and were purchased from Sigma-Aldrich Chemical Co. unless otherwise specified. SSG (1) was purchased from Wako Pure Chemical Industries, Ltd. Diosgenin (6), Dioscin (9), Polyphyllin D (10), Timosaponin BI (22) and Timosaponin BII (23) were purchased from Chengdu Must Bio-Technology Co.
Ltd. Yamogenin (7) was bought from Ambinter c/o Greenpharma while Smilagenin (24) was bought from Steraloids Inc. Substances dissolved in DMSO as stock solutions. Cell culture medium constituents were purchased from Life Technologies, Inc.
Cell culture: Neuro-2A cells expressing Swedish mutants of APP (N2A-APPswe provided by Prof. Yifan Han, The Hong Kong Polytechnic University)1 was cultured in minimal essential medium with 2 mM glutamine, 2 mM pyruvate and 10% fetal bovine serum. Cells were seeded at 6-well plate at 1×106 cells/mL and grown for two days until confluence. […]
Immunoblot analysis: Cells were washed with phosphate buffered saline and lysed with buffer containing 50 mM Tris-Cl, pH 7.4, 150 mM NaCl, 1% Triton X-100 supplemented with protease inhibitors. Equal amount of proteins (30 µg) was resolved by 16.5% Tris-tricine gels and then transferred to nitrocellulose membrane with 0.2 µm pore size. For detection of secreted Aβ, sAPPα and  sAPPβ, cells were treated with the timosaponins for 8 h in complete medium which were then replaced with medium containing 0.1% FBS. After further incubation of 16 h, 50 µL of the conditioned medium was mixed with SDS sample buffer and resolved accordingly. The membrane was blocked with Tris-buffered saline containing 0.1% Tween 20 and 3% BSA and then incubated with primary antibodies at 4 °C overnight, followed with appropriate secondary antibodies for 2 h. The primary antibodies were: APP c-terminal rabbit antibody (1:5000; Merck Bioscience) for detection of full length APP and APP-CTFs, mouse monoclonal 6E10 (Covance) for secreted Aβ and sAPPα,  mouse monoclonal 6A1 (IBL) for sAPPβswe, ADAM-10 rabbit antibody (Millipore) and BACE1

β-secretase = target: T1, β-secretase (Mus musculus, UniProt P56818); assay: β-Secretase assay in N2A-APPswe cell protein extracts; assay type: biochemical
T1 construct: endogenous in cells; host or cells: N2A-APPswe (Neuro-2A stably expressing APP Swedish mutant)
T1 sequence (P56818 46-501): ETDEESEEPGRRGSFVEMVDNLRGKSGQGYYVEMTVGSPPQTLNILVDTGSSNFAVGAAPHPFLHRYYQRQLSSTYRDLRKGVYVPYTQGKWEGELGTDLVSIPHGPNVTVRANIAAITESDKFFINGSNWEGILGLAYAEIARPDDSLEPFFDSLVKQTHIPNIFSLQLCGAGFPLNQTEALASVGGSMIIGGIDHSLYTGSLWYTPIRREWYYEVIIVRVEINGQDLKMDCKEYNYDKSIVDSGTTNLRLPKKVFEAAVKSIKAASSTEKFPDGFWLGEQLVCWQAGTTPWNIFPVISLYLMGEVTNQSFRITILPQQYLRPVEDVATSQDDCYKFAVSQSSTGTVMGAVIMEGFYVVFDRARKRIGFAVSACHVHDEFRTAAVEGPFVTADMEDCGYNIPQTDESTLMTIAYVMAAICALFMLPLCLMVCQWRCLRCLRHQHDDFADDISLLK
Experimental: β-Secretase assays: Confluent N2A-APPswe cells were harvested and homogenized with 50
mM MES, pH5.5. Protein extracts (10 µg) were incubated with testing compounds or vehicle
for 1 h at room temperature. […]

[2] = tested on: animal models of dementia; design: method as in PMID 19426756, PMID 16226729, PMID 17566650; settings: oral administration; cited from earlier work
Aβ42 levels in the brain = assay: In vivo brain Aβ42 level by ELISA after oral dosing; settings: 100 mg kg^–1 oral gavage, three times in 2 days, 3–5 month old C57BL/6 mice
Experimental: was performed at least three times. The lowest binding scores were computed and the conformations of the corresponding binding pose presented.
Quantum mechanics/Molecular mechanics. The binding between transmembrane and substrate was further optimized using the QM/MM approach and NWChem software. The quantum part (QM) included TAIII (total 116 atoms), while the rest of the system was modelled as the molecular mechanics (MM) level. The QM region was treated at the DFT level using the B3LYP method. The 6-31G* Pople basis set was employed for all the atoms.
The transmembrane was described with the AMBER parm99 force field. The binding structure was solvated in a cubic box with 6872 classical SPC/E water molecules. Three negative counter ions (Cl-) were added to neutralize the charges in the system. The structure was optimized by performing the BFGS algorithm for the QM part and the steepest descent algorithm for the MM part. The optimization of these two regions (QM and MM) was alternated until self-consistency was reached.
Animal experiments: Male C57BL/6N mice were housed in environmentally controlled room (temperature: 25 ± 2 °C, humidity: 50 ± 5%, 12-h light-dark cycle) in Laboratory Animal Unit, The University of Hong Kong and were freely access to food and water. TAIII, TAI SSG and compound 34 were dissolved in 5% Tween 80 and given to the mice by oral gavage at three repeated doses of 100 mg/kg in 48 hours. Mice were administrated with 5% Tween 80 (control group), TAIII, TAI SSG and 34. The experimental procedures were performed with the approval of Committee of Use of Live Animal for Teaching and Research of The University of Hong Kong. Blood (about 600-800 µL) was collected by cardiac puncture and added with 1/10 volume of Na2EDTA (20 mg/mL) to prevent coagulation. After centrifugation at 3000 g for 15 min at 4 °C, plasma was transferred to a centrifuge tube. […] Both plasma and brain samples were stored at -80 °C until they were analyzed. The Aβ42 levels were determined by Wako High Sensitive Aβx-42 ELISA kit. […]

purified BACE1 = target: T2, purified BACE1 (Homo sapiens, UniProt P56817); assay: β-Secretase assay with purified BACE1; assay type: biochemical
T2 construct: purchased Millipore
T2 sequence (P56817 46-501, species assumed): as the sequence (P56818 46-501) above, with S6P, I162V, I165L, T180S, A182V, V340I, A393L, H443Q counted along it
Experimental: mM MES, pH5.5. Protein extracts (10 µg) were incubated with testing compounds or vehicle for 1 h at room temperature. The β-secretase activities were assayed by adding 10 µM fluorogenic β-secretase substrate (Millipore) to the reaction mixtures and the fluorescence (excitation, 380; emission, 460) were measured. β-Secretase assays were also performed using purified BACE1 (Millipore) at 100 ng in a buffer containing 50 mM MES, pH 5.5. […]

Neuro-2A cells = assay: Neurite outgrowth, type III β-tubulin immunostaining; assay type: cell-based; settings: at concentrations that lower Aβ production, 18 h
Experimental: Immunofluorescence examination of neurite outgrowth: Neuro-2A cells were seeded at 1×105 per glass bottom dishes. After treatment, cells were fixed with 4% paraformaldyde for 10 min, permeabilized with 0.1% Triton X-100, and then blocked with 1% BSA in PBS.
The cells were incubated with monoclonal antibody raised against type III β-tubulin (Sigma) for 1 h followed by Alexa488 conjugated secondary antibody. Neurite morphology was examined under fluorescence microscope. […]

| SMILES | expression of ADAM-10 [1] | expression of the β-secretase BACE1 [1] | α-secretase-cleaved CTF (C-83) and secreted APPα ([1]; 10 μM) | expression of full length APP ([1]; 18 h) | levels of β-secretase-cleaved CTF (C-99) and secreted APPβ ([1]; concentration-dependent) | β-secretase activities in the cell extracts (β-secretase) | memory dysfunction [2] | reduction of Aβ42 levels in the brain (Aβ42 levels in the brain) | activities of purified BACE1 (purified BACE1) | sAPPα levels ([1]; 100 μM) | α-CTF and β-CTF expression ([1]; 100 μM) | neurite outgrowth (Neuro-2A cells) |
| --- | --- | --- | --- | --- | --- | --- | --- | --- | --- | --- | --- | --- |
| C[C@H]1CC[C@@]2(OC1)O[C@H]1C[C@H]3[C@@H]4CC[C@@H]5C[C@@H](O[C@@H]6O[C@H](CO)[C@H](O)[C@H](O)[C@H]6O[C@@H]6O[C@H](CO)[C@@H](O)[C@H](O)[C@H]6O)CC[C@]5(C)[C@H]4CC[C@]3(C)[C@H]1[C@@H]2C [TAIII (2), timosaponin A III] | did not alter | did not affect | increased | did not elicit a change | decreased | did not affect | improve | 83% ± 13% | did not affect |  |  |  |
| C[C@H]1CC[C@@]2(OC1)O[C@H]1C[C@H]3[C@@H]4CC[C@@H]5C[C@@H](O)CC[C@]5(C)[C@H]4CC[C@]3(C)[C@H]1[C@@H]2C [SSG (1), sarsasapogenin] |  |  |  |  |  | no change | improve |  |  | marked increase | increased | markedly stimulated |
| C[C@H]1CC[C@@]2(OC1)O[C@H]1C[C@H]3[C@@H]4CC[C@@H]5C[C@@H](O[C@@H]6O[C@H](CO)[C@H](O)[C@H](O)[C@H]6O)CC[C@]5(C)[C@H]4CC[C@]3(C)[C@H]1[C@@H]2C [TAI (3), timosaponin A I] |  |  |  |  |  |  |  | 87% ± 14% |  |  |  |  |
